Experiment: isobaric coefficient of expansion; xn = mol fraction of the nth substance listed
Settings: 348.15 K, calorimetric method

CCCCCCO [hexan-1-ol] + CCCCCC
isobaric coefficient of expansion
Settings | 5000 kPa | 10000 kPa | 15000 kPa | 20000 kPa | 25000 kPa
x1 = 0.0321 | 0.00153 1/K | 0.00141 1/K | 0.00133 1/K | 0.00126 1/K | 0.00119 1/K
x1 = 0.041 | 0.00152 1/K | 0.00142 1/K | 0.00133 1/K | 0.00126 1/K | 0.0012 1/K
x1 = 0.0946 | 0.00151 1/K | 0.00141 1/K | 0.00133 1/K | 0.00126 1/K | 0.00119 1/K
x1 = 0.1679 | 0.00147 1/K | 0.00138 1/K | 0.0013 1/K | 0.00123 1/K | 0.00118 1/K
x1 = 0.2153 | 0.00144 1/K | 0.00135 1/K | 0.00128 1/K | 0.00122 1/K | 0.00116 1/K
x1 = 0.3016 | 0.00138 1/K | 0.0013 1/K | 0.00124 1/K | 0.00118 1/K | 0.00112 1/K
x1 = 0.4075 | 0.00132 1/K | 0.00125 1/K | 0.00119 1/K | 0.00113 1/K | 0.00109 1/K
x1 = 0.503 | 0.00126 1/K | 0.0012 1/K | 0.00114 1/K | 0.0011 1/K | 0.00106 1/K
x1 = 0.594 | 0.00121 1/K | 0.00115 1/K | 0.0011 1/K | 0.00106 1/K | 0.00102 1/K
x1 = 0.6827 | 0.00116 1/K | 0.00111 1/K | 0.00107 1/K | 0.00103 1/K | 0.000994 1/K
x1 = 0.8013 | 0.00109 1/K | 0.00105 1/K | 0.00101 1/K | 0.000979 1/K | 0.000947 1/K
x1 = 0.8934 | 0.00104 1/K | 0.001 1/K | 0.00097 1/K | 0.00094 1/K | 0.000911 1/K
x1 = 1 | 0.000995 1/K | 0.00096 1/K | 0.000929 1/K | 0.000903 1/K | 0.000875 1/K

Source: the NIST ThermoML archive (doi:10.1016/j.fluid.2008.10.003)
